System: White Leghorn chickens
Format: in vivo
Settings: oral gavage, 100 μg human IgG together with the adjuvant, two hens per group

Row | Compound | titers (antibodies in egg yolk)
1 | CCCCCCCCCCCCCCCCCC[N+](C)(C)CCCCCCCCCCCCCCCCCC.[Br-] [DDA, Dimethyl dioctadecyl ammonium bromide] | no or very low titers
2 | CTB | One of four chickens in the CTB-group showed high titers
